pKi: −log10 of the molar value.
Key:
Mu-type opioid receptor [1] = molecular target: T1, Mu-type opioid receptor (Homo sapiens, UniProt P35372); assay: Displacement of [3H]DAMGO from human mu opioid receptor expressed in CHO cells; format: cell-based
[2] = molecular target: Kappa-type opioid receptor (Homo sapiens, UniProt P41145); assay: Displacement of [3H]U69593 from human kappa opioid receptor expressed in CHO cells; format: cell-based
Homo sapiens [3] = species on record: Homo sapiens; assay: Selectivity ratio of Ki for human mu opioid receptor over Ki for human delta opioid receptor
Homo sapiens [4] = species on record: Homo sapiens; assay: Selectivity ratio of Ki for human mu opioid receptor over Ki for human kappa opioid receptor
[5] = molecular target: T2, Delta-type opioid receptor (Homo sapiens, UniProt P41143); assay: biochemical
Description: Displacement of [3H]DPDPE from human delta opioid receptor expressed in CHO cells

Mu-type opioid receptor [6] = molecular target: T1, Mu-type opioid receptor
Description: Activity at human mu opioid receptor by [35S]GTPgammaS binding assay

[7] = Metabolic stability assessed as half life in mouse liver microsomes at 40 uM; format: ADME, Microsome
[8] = Metabolic stability assessed as half life in human liver S9 fraction at 40 uM; format: ADME, subcellular
CYP2C9 = CYP2C9 (Homo sapiens, UniProt P11712); assay: Inhibition of CYP2C9 at 10 uM; format: ADME
Rattus norvegicus = species on record: Rattus norvegicus; assay: Inhibition of self alcohol consumption in rat using operant techniques; format: functional
CYP3A4 = CYP3A4 (Homo sapiens, UniProt P08684); assay: Inhibition of CYP3A4 at 10 uM; format: ADME
CYP2B6 = molecular target: T3, CYP2B6 (Homo sapiens, UniProt P20813); assay: Inhibition of CYP2B6 at 10 uM; format: ADME
T3 sequence (P20813 whole entry): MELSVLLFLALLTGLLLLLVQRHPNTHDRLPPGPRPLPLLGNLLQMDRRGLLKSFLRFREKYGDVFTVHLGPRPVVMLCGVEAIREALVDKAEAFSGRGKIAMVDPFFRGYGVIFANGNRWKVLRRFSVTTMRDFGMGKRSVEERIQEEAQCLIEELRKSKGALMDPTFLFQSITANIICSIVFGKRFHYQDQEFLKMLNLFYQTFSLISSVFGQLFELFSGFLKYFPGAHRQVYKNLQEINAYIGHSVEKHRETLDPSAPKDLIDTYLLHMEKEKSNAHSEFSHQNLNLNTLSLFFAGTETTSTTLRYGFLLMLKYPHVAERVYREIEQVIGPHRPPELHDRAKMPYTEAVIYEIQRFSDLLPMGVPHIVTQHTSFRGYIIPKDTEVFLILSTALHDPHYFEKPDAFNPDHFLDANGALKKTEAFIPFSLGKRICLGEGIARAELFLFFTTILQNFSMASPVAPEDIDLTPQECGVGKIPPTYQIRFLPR

CYP2C19 = CYP2C19 (Homo sapiens, UniProt P33261); assay: Inhibition of CYP2C19 at 10 uM; format: ADME
CYP2D6 = CYP2D6 (Homo sapiens, UniProt P10635); assay: in vitro
Description: Inhibition of CYP2D6 at 10 uM

[9] = molecular target: T2, Delta-type opioid receptor; assay: Activity at human delta opioid receptor by [35S]GTPgammaS binding assay; format: functional

T1 sequence (P35372 whole entry): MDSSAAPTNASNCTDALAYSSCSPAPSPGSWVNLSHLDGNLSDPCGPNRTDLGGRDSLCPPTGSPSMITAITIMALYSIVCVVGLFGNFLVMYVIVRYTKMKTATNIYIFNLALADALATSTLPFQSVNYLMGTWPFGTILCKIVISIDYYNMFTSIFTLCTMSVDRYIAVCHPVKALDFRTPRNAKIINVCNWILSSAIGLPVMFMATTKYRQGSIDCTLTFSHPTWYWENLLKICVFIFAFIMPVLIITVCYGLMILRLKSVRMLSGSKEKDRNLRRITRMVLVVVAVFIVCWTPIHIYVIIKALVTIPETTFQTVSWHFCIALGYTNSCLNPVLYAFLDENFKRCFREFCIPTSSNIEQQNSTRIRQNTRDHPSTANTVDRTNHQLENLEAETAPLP
T2 sequence (P41143 whole entry): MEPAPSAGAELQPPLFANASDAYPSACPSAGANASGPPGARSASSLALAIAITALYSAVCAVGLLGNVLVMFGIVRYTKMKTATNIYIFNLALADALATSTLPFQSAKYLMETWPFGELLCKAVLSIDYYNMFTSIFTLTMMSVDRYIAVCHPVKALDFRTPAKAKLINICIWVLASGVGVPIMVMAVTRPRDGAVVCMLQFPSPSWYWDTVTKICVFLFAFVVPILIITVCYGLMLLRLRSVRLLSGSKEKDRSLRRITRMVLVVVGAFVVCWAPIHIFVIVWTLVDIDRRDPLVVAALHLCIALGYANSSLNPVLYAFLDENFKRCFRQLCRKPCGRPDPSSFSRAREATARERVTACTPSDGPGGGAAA
Kappa-type opioid receptor, sequence (P41145 whole entry): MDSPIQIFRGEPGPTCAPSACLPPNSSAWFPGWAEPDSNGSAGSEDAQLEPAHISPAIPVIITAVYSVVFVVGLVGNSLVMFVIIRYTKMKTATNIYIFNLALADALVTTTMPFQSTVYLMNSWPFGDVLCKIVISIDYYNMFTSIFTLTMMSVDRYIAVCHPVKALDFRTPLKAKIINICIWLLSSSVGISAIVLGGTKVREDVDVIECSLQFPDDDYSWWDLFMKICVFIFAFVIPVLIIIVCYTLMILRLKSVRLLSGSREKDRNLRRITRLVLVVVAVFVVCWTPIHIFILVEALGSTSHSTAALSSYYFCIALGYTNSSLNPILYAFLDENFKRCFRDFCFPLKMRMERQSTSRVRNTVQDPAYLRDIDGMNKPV
CYP2C9, sequence (P11712 whole entry): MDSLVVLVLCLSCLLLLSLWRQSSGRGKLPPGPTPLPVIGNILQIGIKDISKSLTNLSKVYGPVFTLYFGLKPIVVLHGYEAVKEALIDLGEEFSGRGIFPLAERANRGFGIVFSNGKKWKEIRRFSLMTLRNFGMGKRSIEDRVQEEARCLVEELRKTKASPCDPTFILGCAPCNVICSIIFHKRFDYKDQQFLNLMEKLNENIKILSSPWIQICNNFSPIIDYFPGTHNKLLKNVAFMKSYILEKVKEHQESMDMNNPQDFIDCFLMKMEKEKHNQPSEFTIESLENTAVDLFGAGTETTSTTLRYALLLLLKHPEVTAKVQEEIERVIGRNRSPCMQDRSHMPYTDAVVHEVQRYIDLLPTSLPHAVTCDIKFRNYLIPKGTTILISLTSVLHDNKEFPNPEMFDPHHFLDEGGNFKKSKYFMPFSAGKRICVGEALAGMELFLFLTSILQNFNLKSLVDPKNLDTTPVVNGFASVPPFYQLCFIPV
CYP2D6, sequence (P10635 whole entry): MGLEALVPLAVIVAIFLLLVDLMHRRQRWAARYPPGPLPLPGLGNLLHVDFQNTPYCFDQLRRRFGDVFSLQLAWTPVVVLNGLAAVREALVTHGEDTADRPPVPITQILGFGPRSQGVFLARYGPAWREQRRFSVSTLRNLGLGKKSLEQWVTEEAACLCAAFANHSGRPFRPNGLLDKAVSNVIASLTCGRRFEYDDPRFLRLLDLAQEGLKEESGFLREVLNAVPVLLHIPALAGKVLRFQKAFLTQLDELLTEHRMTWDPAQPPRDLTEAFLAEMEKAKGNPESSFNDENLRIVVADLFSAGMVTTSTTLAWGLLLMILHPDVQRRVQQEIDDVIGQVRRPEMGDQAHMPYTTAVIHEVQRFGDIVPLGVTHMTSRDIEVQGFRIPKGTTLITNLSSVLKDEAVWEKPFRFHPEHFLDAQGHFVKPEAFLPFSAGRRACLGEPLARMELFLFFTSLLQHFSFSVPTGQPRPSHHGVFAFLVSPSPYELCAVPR
CYP3A4, sequence (P08684 whole entry): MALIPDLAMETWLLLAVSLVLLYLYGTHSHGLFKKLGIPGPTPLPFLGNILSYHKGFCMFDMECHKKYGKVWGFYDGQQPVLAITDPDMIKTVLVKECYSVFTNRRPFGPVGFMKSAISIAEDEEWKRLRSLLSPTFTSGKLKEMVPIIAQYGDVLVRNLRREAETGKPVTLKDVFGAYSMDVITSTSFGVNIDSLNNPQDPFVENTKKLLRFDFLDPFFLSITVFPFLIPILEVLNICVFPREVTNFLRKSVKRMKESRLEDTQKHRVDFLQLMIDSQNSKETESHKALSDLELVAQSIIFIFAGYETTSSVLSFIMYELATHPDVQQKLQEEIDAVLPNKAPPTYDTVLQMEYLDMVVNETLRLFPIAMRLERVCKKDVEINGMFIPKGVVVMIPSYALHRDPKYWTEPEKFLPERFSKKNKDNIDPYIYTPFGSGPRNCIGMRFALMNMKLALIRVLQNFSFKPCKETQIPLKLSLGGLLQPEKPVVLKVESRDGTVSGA
CYP2C19, sequence (P33261 whole entry): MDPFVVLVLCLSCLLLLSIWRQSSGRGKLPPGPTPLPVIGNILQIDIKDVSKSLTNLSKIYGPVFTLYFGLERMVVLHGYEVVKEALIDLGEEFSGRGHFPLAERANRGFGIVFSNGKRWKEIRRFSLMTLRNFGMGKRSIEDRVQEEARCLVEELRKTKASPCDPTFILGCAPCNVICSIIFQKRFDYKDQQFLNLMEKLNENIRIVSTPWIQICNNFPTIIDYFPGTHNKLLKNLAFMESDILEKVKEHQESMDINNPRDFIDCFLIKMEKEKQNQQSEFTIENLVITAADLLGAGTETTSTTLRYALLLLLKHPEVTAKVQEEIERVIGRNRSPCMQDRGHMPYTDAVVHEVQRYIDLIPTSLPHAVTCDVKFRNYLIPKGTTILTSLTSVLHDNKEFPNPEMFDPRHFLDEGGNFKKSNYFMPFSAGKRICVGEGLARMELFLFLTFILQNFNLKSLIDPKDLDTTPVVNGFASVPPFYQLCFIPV

SMILES	pKi (Mu-type opioid receptor [1])	pKi [2]	Ratio Ki (Homo sapiens [3])	Ratio Ki (Homo sapiens [4])	pKi [5]	also measured
O=C(C[C@@H]1O[C@H](CO)[C@@H](O)[C@H](O)[C@H]1O)N[C@@H]1CC[C@@]2(O)[C@H]3Cc4ccc(O)c5c4[C@@]2(CCN3CC2CC2)[C@H]1O5	9.19	8.35	150	7	7.00	Ke (Mu-type opioid receptor [6]): 0.37 nM
C=C1CC[C@@]2(O)[C@H]3Cc4ccc(O)c5c4[C@@]2(CCN3CC2CC2)[C@H]1O5	–	–	–	–	–	half-life at 40 µM [7]: 20 min; half-life at 40 µM [8]: 20 min; inhibition at 10 µM (CYP2C9): 35.5%; ED50 (Rattus norvegicus): 0.04 mg/kg
COC(=O)c1ccc(C(=O)N[C@@H]2CC[C@@]3(O)[C@H]4Cc5ccc(O)c6c5[C@@]3(CCN4CC3CC3)[C@H]2O6)cc1	9.68	9.14	130	3.5	7.57	–
O=C(O)c1ccc(C(=O)N[C@@H]2CC[C@@]3(O)[C@H]4Cc5ccc(O)c6c5[C@@]3(CCN4CC3CC3)[C@H]2O6)cc1	8.00	6.82	7860	14.9	7.10	–
COc1cccc(C(=O)N[C@H]2CC[C@@]3(O)[C@H]4Cc5ccc(O)c6c5[C@@]3(CCN4CC3CC3)[C@H]2O6)c1	9.80	9.14	36	4.5	8.24	half-life at 40 µM [7]: 49 min
O=C(N[C@@H]1CC[C@@]2(O)[C@H]3Cc4ccc(O)c5c4[C@@]2(CCN3CC2CC2)[C@H]1O5)c1ccccn1	9.51	9.41	180	1.3	7.25	–
O=C(N[C@H]1CC[C@@]2(O)[C@H]3Cc4ccc(O)c5c4[C@@]2(CCN3CC2CC2)[C@H]1O5)c1ccccc1	9.68	9.11	–	–	–	–
COc1cc(OC)cc(C(=O)N[C@H]2CC[C@@]3(O)[C@H]4Cc5ccc(O)c6c5[C@@]3(CCN4CC3CC3)[C@H]2O6)c1	9.72	8.62	36	13	8.17	–
O=C(Cc1cccs1)N[C@H]1CC[C@@]2(O)[C@H]3Cc4ccc(O)c5c4[C@@]2(CCN3CC2CC2)[C@H]1O5	9.42	8.56	5.5	7.2	8.68	–
Nc1ccc(C(=O)N[C@@H]2CC[C@@]3(O)[C@H]4Cc5ccc(O)c6c5[C@@]3(CCN4CC3CC3)[C@H]2O6)cc1	9.37	9.40	85	0.93	7.44	–
COc1cccc(CC(=O)N[C@@H]2CC[C@@]3(O)[C@H]4Cc5ccc(O)c6c5[C@@]3(CCN4CC3CC3)[C@H]2O6)c1	9.89	9.35	120	3.5	7.80	–
O=C(N[C@@H]1CC[C@@]2(O)[C@H]3Cc4ccc(O)c5c4[C@@]2(CCN3CC2CC2)[C@H]1O5)c1ccc(Cl)cc1	–	–	–	–	–	half-life at 40 µM [7]: 255 min; inhibition at 10 µM (CYP3A4): 30.8%; inhibition at 10 µM (CYP2B6): 7%; inhibition at 10 µM (CYP2C9): 28.1%; inhibition at 10 µM (CYP2C19): 39.1%; ED50 (Rattus norvegicus): 0.5 mg/kg; inhibition at 10 µM (CYP2D6): 4.7%
O=C(N[C@@H]1CC[C@@]2(O)[C@H]3Cc4ccc(O)c5c4[C@@]2(CCN3CC2CC2)[C@H]1O5)c1ccccc1	9.74	9.80	–	–	–	–
COc1ccc(CC(=O)N[C@@H]2CC[C@@]3(O)[C@H]4Cc5ccc(O)c6c5[C@@]3(CCN4CC3CC3)[C@H]2O6)cc1	9.57	9.38	74	1.6	7.70	–
O=C(CCc1ccccc1)N[C@@H]1CC[C@@]2(O)[C@H]3Cc4ccc(O)c5c4[C@@]2(CCN3CC2CC2)[C@H]1O5	9.92	10.05	100	0.8	7.91	Ke (Mu-type opioid receptor [6]): 0.15 nM
O=C(C[C@@H]1O[C@H](COCc2ccccc2)[C@@H](OCc2ccccc2)[C@H](OCc2ccccc2)[C@H]1OCc1ccccc1)N[C@H]1CC[C@@]2(O)[C@H]3Cc4ccc(O)c5c4[C@@]2(CCN3CC2CC2)[C@H]1O5	8.83	9.29	16.5	0.34	7.61	Ke [9]: 10.3 nM; Ke (Mu-type opioid receptor [6]): 0.16 nM
O=C(C[C@@H]1O[C@H](CO)[C@@H](O)[C@H](O)[C@H]1O)N[C@H]1CC[C@@]2(O)[C@H]3Cc4ccc(O)c5c4[C@@]2(CCN3CC2CC2)[C@H]1O5	9.17	8.69	55	3	7.43	–
O=C(Cc1ccccc1)N[C@@H]1CC[C@@]2(O)[C@H]3Cc4ccc(O)c5c4[C@@]2(CCN3CC2CC2)[C@H]1O5	9.80	9.37	180	2.7	7.55	–
COc1cc(OC)cc(C(=O)N[C@@H]2CC[C@@]3(O)[C@H]4Cc5ccc(O)c6c5[C@@]3(CCN4CC3CC3)[C@H]2O6)c1	9.59	9.54	68	1.1	7.75	–
O=C(Cc1cccs1)N[C@@H]1CC[C@@]2(O)[C@H]3Cc4ccc(O)c5c4[C@@]2(CCN3CC2CC2)[C@H]1O5	9.37	8.92	75	2.8	7.49	Ke (Mu-type opioid receptor [6]): 0.41 nM
O=C(/C=C/Cc1ccccc1)N[C@@H]1CC[C@@]2(O)[C@H]3Cc4ccc(O)c5c4[C@@]2(CCN3CC2CC2)[C@H]1O5	10.22	9.04	100	20	8.09	–
CC(C)(C)OC(=O)Nc1ccc(C(=O)N[C@@H]2CC[C@@]3(O)[C@H]4Cc5ccc(O)c6c5[C@@]3(CCN4CC3CC3)[C@H]2O6)cc1	9.04	9.10	28	0.86	7.60	–
O=C(N[C@@H]1CC[C@@]2(O)[C@H]3Cc4ccc(O)c5c4[C@@]2(CCN3CC2CC2)[C@H]1O5)c1cccc([N+](=O)[O-])c1	9.72	9.55	–	–	–	–
O=C(N[C@@H]1CC[C@@]2(O)[C@H]3Cc4ccc(O)c5c4[C@@]2(CCN3CC2CC2)[C@H]1O5)c1cccc(O)c1	9.89	10.22	21	0.5	8.56	–

From ChEMBL document CHEMBL1142345, “Synthesis and biological evaluation of alpha- and beta-6-amido derivatives of 17-cyclopropylmethyl-3, 14beta-dihydroxy-4, 5alpha-epoxymorphinan: potential alcohol-cessation agents” (J Med Chem, 2008)
